According to patent publication US10398713B2, “Compositions and methods for the treatment of neurodegenerative and other diseases” (Glialogix, Inc., priority 2013, dated 2019):

Legend:
[1] = for Cmax GB: 4.5 mg, pH 2; for AUC / Cmax IB: pH 5.5
in vivo = settings: male, Sprague-Dawley, rat, 400 mg/kg
Protocol: Rats were allowed to eat ad libitum before testing. […] Following drug administration, 200 μl of plasma was collected from each animal at the following time points: 30, 60, 90, 120, 160 and 240 minutes. Plasma samples were snap frozen in liquid N2 and stored at −80° C. until analysis.

[2] = label / literature; cited from earlier work
SOD1 mouse model = settings: cited from earlier work
[3] = SOD1 mouse model, published results (Shin et al. 2012; Lincecum et al. 2010)

For `O=C(O)c1cc(N=Nc2ccc(S(=O)(=O)Nc3ccccn3)cc2)ccc1O` [Amorphous sulfasalazine, sulfasalazine], the “Cmax GB” value [1] was 154000 ng/mL, the AUC [1] was 30,300 min * ug/mL and the “Cmax IB” value [1] was 372000 ng/mL.

Work on `O=C(O)c1cc(N=Nc2ccc(S(=O)(=O)Nc3ccccn3)cc2)ccc1O` [Crystalline sulfasalazine, sulfasalazine] yielded a concentration at 0.5 h (in vivo) of 1490 ng/mL, a concentration at 1 h (in vivo) of 1140 ng/mL and a concentration at 1.5 h (in vivo) of 1430 ng/mL. It also gave a concentration at 2 h (in vivo) of 1260 ng/mL, a concentration at 3 h (in vivo) of 1030 ng/mL and a concentration at 4 h (in vivo) of 850 ng/mL. For the same molecule, the “Cmax GB” value [1] was 15000 ng/mL, the AUC [1] was 22,200 min * ug/mL and the “Cmax IB” value [1] was 282000 ng/mL.

In the case of `Nc1ccc(S(=O)(=O)Nc2ccccn2)cc1` [Sulfapyridine, sulfapyridine], the “bioavailability (share reaching the circulation following oral dosing)” value [2] is given as greater than 70%.

For `CC(C)Cc1ccc(C(C)C(=O)O)cc1` (stereo not shown) [ibuprofen], the “decreased lifespan after onset of neurological disease” value (SOD1 mouse model; [3]) is given as 10%.

In the case of `Nc1nc2ccc(OC(F)(F)F)cc2s1` [riluzole], the increased absolute lifespan (SOD1 mouse model; SOD1 model, Lincecum et al. 2010) is given as 1.6% and the “increased lifespan after onset of neurological disease” value (SOD1 mouse model; [3]) is given as 1%.
